Some test systems named below: MCF7; HOP-92; SF-539; HCT-116; CCRF-CEM; MOLT-4; SNB-19; IGROV-1; EKVX; ACHN; OVCAR-5; HOP-62; NCI-H460; NCI-H226; SR; TK-10; HCT-15; SF-268; PC-3; M14.
Test in all cases: NCI anticancer screen, dose series, 48 h

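Step 1: Grow cells in 96-well plates. Step 2: Expose to compound for 48 hours at 5 concentrations. Step 3: Interpolate endpoints linearly; if unreached, use highest concentration. GI50 is the concentration that inhibits growth by half.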 The source made the active and inactive calls. No stated cut-off is given here; in the data, active = GI50 up to about 1.1 µM and inactive = higher.

The values below come from ChEMBL document CHEMBL1201862, “PubChem BioAssay data set” (2004).

As to `Cc1ccc2c(O)cc(-c3csc4ccccc34)nc2n1`, the GI50 in the test with MCF7 is 0.0131 µM (active); with HOP-92 it was 0.321 µM (active); in the test on SF-539, < 0.01 µM (active); in the test on HCT-116, < 0.0104 µM (active); with CCRF-CEM, < 0.01 µM (active); in the test with MOLT-4 it was < 0.01 µM (active). Moreover, the GI50 was < 0.01 µM (active) in the test with SNB-19; 0.0362 µM (active) in the test with IGROV-1; 0.0344 µM (active) with EKVX; < 0.01 µM (active) in the test on ACHN; 0.0358 µM (active) in the test with OVCAR-5; < 0.0138 µM (active) with HOP-62. In addition, the GI50 in the test with NCI-H460 was < 0.0161 µM (active); in the test on NCI-H226, 0.0174 µM (active); with SR it was < 0.01 µM (active); with TK-10, 0.484 µM (active); in the test on HCT-15, under 0.0151 µM; in the test on SF-268, 0.018 µM (active). The GI50 in the test on PC-3 and with M14 was < 0.01 µM (active) in each case.
In the case of `COc1cc(C(CN)N(C)C)cc(OC)c1OC` (stereo not given), the GI50 in the test on MCF7, with HOP-92, with SF-539, in the test on HCT-116, in the test with CCRF-CEM and in the test with MOLT-4 was > 100 µM (inactive) each time. Further, the GI50 with SNB-19, in the test with IGROV-1, in the test on EKVX, with ACHN, with OVCAR-5 and with HOP-62 was > 100 µM (inactive) throughout. Further, the GI50 was > 100 µM (inactive) in the test on NCI-H460; 29.6 µM (inactive) in the test with NCI-H226; 8.49 µM (inactive) in the test on SR; > 100 µM (inactive) in the test with TK-10; over 100 µM in the test with HCT-15; > 100 µM (inactive) in the test with SF-268. Also, the GI50 with PC-3 and in the test on M14 was > 100 µM (inactive) throughout.
Regarding `O=[N+]([O-])c1ccc(Cl)cc1-n1nc(-c2ccccc2)cc1-c1ccccc1`, the GI50 with MCF7 was 95.1 µM (inactive); in the test on HOP-92, > 100 µM (inactive); in the test with SF-539 it was 50.5 µM (inactive); in the test on HCT-116 it was 99.8 µM (inactive); with CCRF-CEM it was > 100 µM (inactive); in the test on MOLT-4, > 100 µM (inactive). In addition, the GI50 in the test with SNB-19 was > 100 µM (inactive); in the test on IGROV-1, > 100 µM (inactive); in the test with EKVX, > 100 µM (inactive); in the test with ACHN, > 100 µM (inactive); in the test with OVCAR-5, > 100 µM (inactive); with HOP-62 it was > 10 µM (inactive). The GI50 in the test with NCI-H460 was > 100 µM (inactive); in the test on NCI-H226, > 100 µM (inactive); in the test with SR it was > 100 µM (inactive); in the test on TK-10, > 100 µM (inactive); in the test on HCT-15, over 100 µM; in the test with SF-268, > 100 µM (inactive). Moreover, the GI50 with PC-3 and in the test with M14 was > 100 µM (inactive) throughout.
Regarding `COC(=O)c1c(O)ccc2c1c1cc3ccccc3c(O)c1n2CCc1ccc(OC)c(OC)c1`, the GI50 with MCF7 is 65.8 µM (inactive); in the test with HOP-92 it was 31.3 µM (inactive); in the test on SF-539, 98.9 µM (inactive); in the test with HCT-116, 97.1 µM (inactive); in the test with CCRF-CEM it was 30.1 µM (inactive); with MOLT-4, 89.3 µM (inactive). In addition, the GI50 in the test on SNB-19 was > 100 µM (inactive); in the test on IGROV-1 it was 42.2 µM (inactive); with EKVX, > 100 µM (inactive); with ACHN it was 83.4 µM (inactive); in the test with OVCAR-5, > 100 µM (inactive); with HOP-62, > 100 µM (inactive). Also, the GI50 in the test on NCI-H460 was 20.9 µM (inactive); in the test with NCI-H226, > 100 µM (inactive); in the test with SR, 38.4 µM (inactive); with TK-10 it was > 100 µM (inactive); in the test with HCT-15, 61.5 µM; in the test on SF-268, 76.4 µM (inactive). The results for the GI50 in the test with PC-3 and in the test on M14 were 59.8 µM (inactive) and 86.7 µM (inactive), respectively.
Take `CC(=O)Oc1ccc(OC(Oc2ccccc2)c2ccccc2)cc1` (stereo not given): the GI50 is 35.4 µM (inactive) with MCF7; 19 µM (inactive) with HOP-92; 23.1 µM (inactive) in the test on SF-539; 24.9 µM (inactive) in the test on HCT-116; 27.5 µM (inactive) in the test on CCRF-CEM; 34 µM (inactive) with MOLT-4. Also, the GI50 with SNB-19 was 27.3 µM (inactive); in the test on IGROV-1, 32.6 µM (inactive); in the test with EKVX, 41.6 µM (inactive); in the test with ACHN it was 25.2 µM (inactive); in the test with OVCAR-5 it was 27.7 µM (inactive); in the test on HOP-62, 36.2 µM (inactive). The GI50 in the test with NCI-H460 was 21.6 µM (inactive); with NCI-H226, 27 µM (inactive); in the test with SR it was 14.9 µM (inactive); in the test with TK-10, 67.3 µM (inactive); with HCT-15, 33.9 µM; in the test with SF-268, 33 µM (inactive). Besides, the results for the GI50 in the test on PC-3 and in the test on M14 were 30 µM (inactive) and 17.5 µM (inactive), respectively.
As to `CC(C)(C)OC(=O)c1cnc(Cl)cn1`, the GI50 was 23.5 µM (inactive) in the test on MCF7; 3.12 µM (inactive) in the test on HOP-92; > 100 µM (inactive) in the test with SF-539; 33.6 µM (inactive) in the test on HCT-116; 18.7 µM (inactive) in the test with CCRF-CEM; 27.3 µM (inactive) with MOLT-4. Also, the GI50 in the test with SNB-19 was 95.3 µM (inactive); with IGROV-1 it was 23.4 µM (inactive); with EKVX, 24.2 µM (inactive); in the test on ACHN, 35.6 µM (inactive); in the test with OVCAR-5 it was 83.4 µM (inactive); in the test with HOP-62, > 100 µM (inactive). For the same compound, the GI50 in the test with NCI-H460 was 49.7 µM (inactive); in the test on NCI-H226, 34.9 µM (inactive); in the test with SR it was 45 µM (inactive); in the test on TK-10, > 100 µM (inactive); with HCT-15, 11.7 µM; in the test with SF-268 it was 55.5 µM (inactive). Further, the values for the GI50 with PC-3 and in the test with M14 were 64.7 µM (inactive) and 29.4 µM (inactive), respectively.
Consider `O=c1c(C(c2cc(OCc3ccccc3)cc(OCc3ccccc3)c2)c2c(O)oc3ccccc3c2=O)c(O)oc2ccccc12`, for which the GI50 in the test with MCF7 is 12.3 µM (inactive); in the test on HOP-92, 2.69 µM (inactive); in the test with SF-539, 5.86 µM (inactive); in the test on HCT-116, 3.39 µM (inactive); with CCRF-CEM it was 2.42 µM (inactive); with MOLT-4 it was 3.91 µM (inactive). Moreover, the GI50 with SNB-19 is 3.74 µM (inactive); in the test on IGROV-1, 14.1 µM (inactive); in the test with EKVX it was 9.04 µM (inactive); in the test with ACHN, 2.92 µM (inactive); with OVCAR-5 it was 11.8 µM (inactive); with HOP-62, 10.3 µM (inactive). Further, the GI50 in the test on NCI-H460 was 3.45 µM (inactive); in the test with NCI-H226 it was 9.64 µM (inactive); in the test with SR it was 3.28 µM (inactive); in the test with TK-10 it was 11.5 µM (inactive); with HCT-15, 3.17 µM; in the test on SF-268, 5.07 µM (inactive). Further, the GI50 was 4 µM (inactive) in the test on PC-3 and 7.13 µM (inactive) in the test on M14.
